The test system of assay [1] is Human Coronary Arterial Endothelial Cells (HCAEC). Conditions: NaNO2 3 μM; hypoxia 0.1% O2 24 h, re-oxygenation 8, 24 and 48 h; FIG. 2. The method, then:
(§1) FIG. 2—Effects of NaNO2 on cell proliferation of Human Coronary Arterial Endothelial Cells (HCAEC) and Human Coronary Arterial Smooth Muscle Cells (HCSMC) exposed to Ischaemia/Reperfusion injury. Cell Count of HCAEC and HCASMC respectively under hypoxia (0.1% O2, 24 h) and re-oxygenation (normoxia, 8, 24 and 48 h post ischaemia)) in the absence and presence of NaNO2 3 μM. n=7/group for HCAEC and n=5/group for HCASMC. Results are expressed as % changes of the respective matched normoxia controls. Data represent mean±SEM of the number of independent experiments performed as indicated above. Statistical significance determined using two-way ANOVA followed by post-test comparing response at each timepoint between treatments determined using Sidak's multiple comparison test.

In assay [2] the test system is Human Coronary Arterial Smooth Muscle Cells (HCSMC). Conditions: NaNO2 3 μM; hypoxia 0.1% O2 24 h, re-oxygenation 8, 24 and 48 h; FIG. 2. The method, then:
as §1

As for `O=N[O-].[Na+]` [nitrite, NaNO2], the “endothelial cell growth following an ischaemia-reperfusion insult” value in assay [1] is recorded as “improves”. In addition, in assay [2], the “growth of vascular smooth muscle cells following an ischaemia-reperfusion insult” value was “suppressing”.

The record behind these values is patent US20260224613A1, “Use Of Inorganic Nitrate For Preventing Restenosis And/Or Device Thrombosis” (Queen Mary University of London, priority 2023, published 2026).
